Tests used:
myofibroblast formation = conditions: capsular contracture with breast implants, Ajmal et al. (2003); cited from earlier work
fibrinolysis = assay: prevention / reversal of fibrinolysis; conditions: one tenth of the doses used in the non-GLP acute porcine study

Row | SMILES | myofibroblast formation (myofibroblast formation) | effect in reversing fibrinolysis (fibrinolysis)
1 | O=S(=O)([O-])CCS.[Na+] [MESNA, sodium 2-mercaptoethane sulfonate] | diminish myofibroblast formation | –
2 | NC[C@H]1CC[C@H](C(=O)O)CC1 [tranexamic acid, trans-4-(aminomethyl)cyclohexanecarboxylic acid] | – | effective in reversing fibrinolysis

Source: patent publication US20220211477A1, “SURGICAL SYSTEM AND METHODS OF USE” (priority 2021, published 2022)
